Our source for the IC50 and EC50 values is patent publication US20260207618A1, “PYRIMIDINE CARBOXAMIDE COMPOUNDS” (Acrivon Therapeutics, Inc., priority 2022, published 2026).

By pIC50 is commonly meant the IC50 on a negative log10 scale, so that one unit is a factor of ten. By pEC50 is commonly meant the EC50 on a negative log10 scale, so that one unit is a factor of ten.

Experiment [1] addresses T1, recombinant human Wee1A kinase (Homo sapiens, UniProt P30291).
T1 construct: full length Wee1A kinase was expressed by baculovirus in insect cells; purchased Invitrogen PV3817; host or cells: insect cells (baculovirus)
Description: LanthaScreen Europium (Eu) Kinase Binding Assay, Wee1A kinase (TR-FRET tracer displacement). The conditions noted are these: 30 nM tracer 178, 5 nM Wee1A kinase, 60 minutes at room temperature.

The test system of experiment [2] is Cdk1 phosphorylated on tyrosine 15. Description: pCDK1 Y15 AlphaLISA target engagement assay in ACHN cells. It counts as cell-based. As to conditions: Homo sapiens, treated for 4 h, 7 to 5000 nM, read-out: TE Weel (ALISA): AlphaLISA CDK1 Tyr15 Phosphorylation EC50. As for the experimental part:
(§1) ACHN renal cell carcinoma cell line (ATCC) was cultured in Minimum Essential Medium Eagle supplemented with 10% fetal calf serum (Sigma), 1% Penicillin-Streptomycin and 10 mM HEPES buffer (HyClone). Cell cultures were kept in a humidified incubator at 37° C. and 5% CO2. Cells were routinely tested for Mycoplasma contamination.
For target engagement assessment, quantification of Cdk1 phosphorylated on tyrosine 15 was detected using pCDK1 Y^15 AlphaLISA assay (Perkin Elmer). ACHN cells were seeded into tissue culture treated 96-well plates (VWR) to a density of 20,000 cells per well. 24 h post seeding cells were treated for 4 h with compounds at concentrations ranging from 7 to 5000 nM. Cells were washed with PBS and lysed in 50 μl alphaLISA lysis buffer before freezing at −80° C. 10 μl of the lysate was transferred to 384 well plates and incubated with alphaLISA donor and acceptor beads according to the manufacturer's instructions. Dose response curves and EC50 values were calculated and visualized using GraphPad Prism version 9.
In general terms: In Alpha technology, singlet oxygen from a donor bead excites a nearby acceptor bead.

A further experiment deals with ACHN cells. Description: Cell Titer Glo viability assay in ACHN cells. It counts as cell-based. The conditions noted are these: Homo sapiens, 144 h, 0.17 to 10,000 nM. The protocol: as §1
ACHN cells were seeded at a density of 400 cells per well in tissue culture treated 384 well plates (Corning Costar). After overnight incubation, cells were treated with drugs at concentrations ranging from 0.17 to 10,000 nM. Viability compared to untreated control was assessed at 144 h using Cell Titer Glo assay 2.0 (Promega).

Experiment [3] relates to Cdk1 phosphorylated on tyrosine 15. Description: High-content imaging of pCdk1 Y15 by immunofluorescence in ACHN cells. As to conditions: Homo sapiens, high-content imaging (IF), 4 h, 7 to 5000 nM, read-out: CDK1 Tyr15 Phosphorylation EC50 (IC50). It counts as cell-based. The method, boiled down: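 ACHN cells were treated with compounds at 7–5000 nM for 4 h, then fixed, permeabilised and immunostained for pCDK1 Y15, with DAPI as nuclear counterstain. Automated imaging gave the percentage of cells with nuclear pCDK1 Y15 positivity relative to DMSO control. EC50 values came from dose-response curves.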

pEC50, pIC50: −log10 of the molar value. Bounds are passed on as bounds.

T1 sequence (P30291 whole entry): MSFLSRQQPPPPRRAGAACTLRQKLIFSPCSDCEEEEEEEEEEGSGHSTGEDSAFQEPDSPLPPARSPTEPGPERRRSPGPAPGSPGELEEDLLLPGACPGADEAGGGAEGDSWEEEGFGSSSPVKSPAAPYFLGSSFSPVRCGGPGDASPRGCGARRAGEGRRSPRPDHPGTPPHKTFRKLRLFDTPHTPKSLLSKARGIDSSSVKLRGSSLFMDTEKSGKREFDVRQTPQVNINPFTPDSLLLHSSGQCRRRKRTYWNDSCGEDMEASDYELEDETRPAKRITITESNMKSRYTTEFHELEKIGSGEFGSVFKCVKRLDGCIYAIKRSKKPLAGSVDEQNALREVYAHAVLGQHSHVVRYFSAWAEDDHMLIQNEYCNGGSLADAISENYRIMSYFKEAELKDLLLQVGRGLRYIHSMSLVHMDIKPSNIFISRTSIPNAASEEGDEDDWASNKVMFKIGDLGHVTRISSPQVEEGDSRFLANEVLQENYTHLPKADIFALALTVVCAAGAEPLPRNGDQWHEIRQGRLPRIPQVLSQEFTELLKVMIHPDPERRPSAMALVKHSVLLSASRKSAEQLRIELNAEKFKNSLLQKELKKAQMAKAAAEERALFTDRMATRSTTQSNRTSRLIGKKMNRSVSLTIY

On to `COc1nc(Nc2cnn(C3CCN(C)CC3)c2)ncc1C(=O)Nc1c(Cl)cccc1Cl` [Compound 163], for which the pIC50 in experiment [1] is not below 8.00. Also, the negative-log EC50 (pEC50) was less than 5.60 in experiment [2], 6.00 to 6.60 in the experiment with ACHN cells and 6.30 to 7.00 in experiment [3].
For `COc1nc(Nc2ccc(OC3CCNCC3)cc2)ncc1C(=O)Nc1c(Cl)cccc1Cl` [Compound 179] the same measures were not below 8.00, less than 5.60, 6.00 to 6.60 and 6.30 to 7.00.
On to `COc1nc(Nc2ccc(O[C@@H]3CCNC3)c(C)c2)ncc1C(=O)Nc1c(Cl)cccc1Cl` [Compound 178], for which the pIC50 in experiment [1] is not below 8.00. Besides, the pEC50 is 6.00 to 6.30 in experiment [2], 6.00 to 6.60 in the experiment on ACHN cells and not below 7.00 in experiment [3].
Consider `COc1nc(Nc2cnn(C)c2)ncc1C(=O)Nc1c(Cl)cccc1Cl` [Compound 182], for which, in experiment [1], the pIC50 was 7.00 to 8.00. Further, the pEC50 in experiment [2] is less than 5.60; in the experiment with ACHN cells it was 5.30 to 6.00; in experiment [3] it was 6.30 to 7.00.
Consider `COc1nc(Nc2ccc(C3CCN(C)CC3)c(C)c2)ncc1C(=O)Nc1c(C)ccc2[nH]ncc12` [Compound 172], for which the pIC50 in experiment [1] is not below 8.00. In addition, the results for the negative-log EC50 (pEC50) (in experiment [2]; in the experiment on ACHN cells; in experiment [3]) were 6.00 to 6.30, 6.00 to 6.60 and 6.30 to 7.00, respectively.
